Values quoted from earlier work as cited in patent US20050244465A1, “Drug delivery systems and methods for treatment of an eye” (Allergan, Inc., priority 2004, published 2005).

Conditions: efficacy in vivo; 25 mg hydrocortisone equivalent to 1 mg dexamethasone

SMILES: C[C@]12CCC(=O)C=C1CC[C@@H]1[C@@H]2[C@@H](O)C[C@@]2(C)[C@H]1CC[C@]2(O)C(=O)CO [hydrocortisone]
- potency relative to dexamethasone: approximately twentyfivefold less potent than dexamethasone
